Experimental data published in patent US12485263B2, “Device for delivering an antimicrobial composition into a medical device” (ICU Medical, Inc., priority 2018, dated 2025).

How the values were obtained:
[1] = system: Gram positive bacteria, Gram negative bacteria, and fungi; test: Kill of microbes by dissolved chlorhexidine / chlorhexidine acetate (stated, no test protocol)
[2] = 60 kilogram person; cited from earlier work

## CC(=O)O.CC(=O)O.NC(=N\CCCCCC/N=C(N)/N=C(\N)Nc1ccc(Cl)cc1)/N=C(\N)Nc1ccc(Cl)cc1 [chlorhexidine acetate]
[1]; Gram positive bacteria, Gram negative bacteria, and fungi
  concentration that can quickly kill most microbes: greater than 200 μg/mL
[1]; at concentration greater than 200 μg/mL, in many cases
  time to kill microbes: under 1 minute
[2]
  dose considered safe for direct injection into bloodstream: ≥ 500 µg
